Ki data for 19 compounds are collected here from US12226412B2, “Heteroaryl-ketone fused azadecalin glucocorticoid receptor modulators” (Corcept Therapeutics, Inc., priority 2012, dated 2025).

SMILES strings stand for the structures. Where two headings read alike, the source gives them in different places. Bounds are passed on as bounds.

One experiment has as its target T1, human recombinant GR (Homo sapiens, UniProt P04150).
T1 construct: purchased PanVera P2812
T1 sequence (P04150 1-777): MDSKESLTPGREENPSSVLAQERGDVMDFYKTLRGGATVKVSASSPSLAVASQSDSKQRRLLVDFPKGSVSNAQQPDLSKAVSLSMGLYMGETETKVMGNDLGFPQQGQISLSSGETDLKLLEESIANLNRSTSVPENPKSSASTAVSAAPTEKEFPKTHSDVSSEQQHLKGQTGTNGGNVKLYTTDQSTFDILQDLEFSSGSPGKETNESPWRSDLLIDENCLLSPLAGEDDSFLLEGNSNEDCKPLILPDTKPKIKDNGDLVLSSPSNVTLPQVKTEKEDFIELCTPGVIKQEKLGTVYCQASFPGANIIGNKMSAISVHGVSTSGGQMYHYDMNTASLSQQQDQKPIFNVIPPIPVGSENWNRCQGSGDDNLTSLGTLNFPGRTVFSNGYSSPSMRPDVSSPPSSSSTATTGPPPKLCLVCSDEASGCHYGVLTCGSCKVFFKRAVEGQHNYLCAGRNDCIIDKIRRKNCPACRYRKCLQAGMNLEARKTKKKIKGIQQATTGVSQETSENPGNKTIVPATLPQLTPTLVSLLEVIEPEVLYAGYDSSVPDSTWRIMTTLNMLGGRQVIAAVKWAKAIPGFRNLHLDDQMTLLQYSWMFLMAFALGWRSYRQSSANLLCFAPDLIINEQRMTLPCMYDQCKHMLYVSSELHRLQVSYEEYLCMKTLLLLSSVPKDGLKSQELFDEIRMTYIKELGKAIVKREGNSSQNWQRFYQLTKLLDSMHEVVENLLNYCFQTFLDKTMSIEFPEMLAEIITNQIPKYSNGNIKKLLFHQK
The experiment in a line: Human glucocorticoid receptor (GR) fluorescence polarisation (FP) binding assay. An outline of the steps: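 Competition fluorescence polarisation: 0.5 nM GS Red labelled glucocorticoid and 1 nM recombinant human GR with 8-point half-log compound series, 1% DMSO, 4 h room temperature, potassium phosphate pH 7.4 buffer with molybdate, EDTA, DTT. Affinity derived from the drop in polarisation, normalised to blank wells.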

For experiment [1], the system named is induction of TAT by dexamethasone in HepG2 cells. The experiment is described as follows: HepG2 tyrosine aminotransferase (TAT) assay. It is filed as cell-based, human.
Where [2] appears, read: human recombinant GR, fluorescence polarisation binding assay, read-out: GR binding.
[3] abbreviates: HepG2 cells, challenge of 100 nM dexamethasone, Ki from IC50 by Cheng and Prusoff equation.

For the compound `O=C(c1ccccn1)[C@]12Cc3cnn(-c4ccc(F)cc4)c3C=C1CCN(S(=O)(=O)c1cncc(F)c1)C2` [Example 5F, (R)-(1-(4-fluorophenyl)-6-((5-fluoropyridin-3-yl)sulfonyl)-4,4a,5,6,7,8-hexahydro-1H-pyrazolo[3,4-g]isoquinolin-4a-yl)(pyridin-2-yl)methanone], the values for the Ki (on human recombinant GR (setting [2]); in experiment [1] (setting [3])) were less than 0.0005 µM and 0.02 to 0.1 µM, respectively.
Take `O=C(c1ccccn1)[C@]12Cc3cnn(-c4ccc(F)cc4)c3C=C1CCN(S(=O)(=O)c1cccc(F)c1)C2` [Example 5G, (R)-(1-(4-fluorophenyl)-6-((3-fluorophenyl)sulfonyl)-4,4a,5,6,7,8-hexahydro-1H-pyrazolo[3,4-g]isoquinolin-4a-yl)(pyridin-2-yl)methanone]: the Ki at human recombinant GR (setting [2]) was less than 0.0005 µM; in experiment [1] (setting [3]), less than 0.02 µM.
On the same counts, the results for `COc1ccc(C(=O)[C@]23Cc4cnn(-c5ccc(F)cc5)c4C=C2CCN(S(=O)(=O)c2ccc(C(F)(F)F)cc2)C3)nc1` [Example 5H, (R)-(1-(4-fluorophenyl)-6-((4-(trifluoromethyl)phenyl)sulfonyl)-4,4a,5,6,7,8-hexahydro-1H-pyrazolo[3,4-g]isoquinolin-4a-yl)(5-methoxypyridin-2-yl)methanone] are 0.0005 to 0.001 µM and less than 0.02 µM.
`O=C(c1cncs1)[C@]12Cc3cnn(-c4ccc(F)cc4)c3C=C1CCN(S(=O)(=O)c1ccc(C(F)(F)F)cc1)C2` [Example 5I, (R)-(1-(4-fluorophenyl)-6-((4-(trifluoromethyl)phenyl)sulfonyl)-4,4a,5,6,7,8-hexahydro-1H-pyrazolo[3,4-g]isoquinolin-4a-yl)(thiazol-5-yl)methanone]: the results for the Ki (on human recombinant GR; in experiment [1]) were less than 0.0005 µM and greater than 0.1 µM, respectively.
As for `O=C(c1nccs1)[C@]12Cc3cnn(-c4ccc(F)cc4)c3C=C1CCN(S(=O)(=O)c1ccc(N3CCCC3)cc1)C2` [Example 6, (R)-(1-(4-fluorophenyl)-6-((4-(pyrrolidin-1-yl)phenyl)sulfonyl)-4,4a,5,6,7,8-hexahydro-1H-pyrazolo[3,4-g]isoquinolin-4a-yl)(thiazol-2-yl)methanone], the Ki is 0.0005 to 0.001 µM at human recombinant GR (setting [2]) and 0.02 to 0.1 µM in experiment [1] (setting [3]).
For `O=C(c1nccs1)[C@]12Cc3cnn(-c4ccc(F)cc4)c3C=C1CCN(S(=O)(=O)c1cccc(N3CCCC3)c1)C2` [Example 6A, (R)-(1-(4-fluorophenyl)-6-((3-(pyrrolidin-1-yl)phenyl)sulfonyl)-4,4a,5,6,7,8-hexahydro-1H-pyrazolo[3,4-g]isoquinolin-4a-yl)(thiazol-2-yl)methanone], in that order: less than 0.0005 µM and no less than 0.1 µM.
For `O=C(c1nccs1)[C@]12Cc3cnn(-c4ccc(F)cc4)c3C=C1CCN(S(=O)(=O)c1cncc(N3CCCCC3)c1)C2` [Example 7, (R)-(1-(4-fluorophenyl)-6-((5-(piperidin-1-yl)pyridin-3-yl)sulfonyl)-4,4a,5,6,7,8-hexahydro-1H-pyrazolo[3,4-g]isoquinolin-4a-yl)(thiazol-2-yl)methanone], in that order: less than 0.0005 µM and 0.02 to 0.1 µM.
For `O=C(c1nccs1)[C@]12Cc3cnn(-c4ccc(F)cc4)c3C=C1CCN(S(=O)(=O)c1cncc(N3CCCC3)c1)C2` [Example 7A, (R)-(1-(4-fluorophenyl)-6-((5-(pyrrolidin-1-yl)pyridin-3-yl)sulfonyl)-4,4a,5,6,7,8-hexahydro-1H-pyrazolo[3,4-g]isoquinolin-4a-yl)(thiazol-2-yl)methanone], in that order: less than 0.0005 µM and 0.02 to 0.1 µM.
As for `O=C(c1ccccn1)[C@]12Cc3cnn(-c4ccc(F)cc4)c3C=C1CCN(S(=O)(=O)c1ccc(N3CCCC3)nc1)C2` [Example 8, (R)-(1-(4-fluorophenyl)-6-((6-(pyrrolidin-1-yl)pyridin-3-yl)sulfonyl)-4,4a,5,6,7,8-hexahydro-1H-pyrazolo[3,4-g]isoquinolin-4a-yl)(pyridin-2-yl)methanone], the Ki is less than 0.0005 µM on human recombinant GR (setting [2]) and no less than 0.1 µM in experiment [1] (setting [3]).
On the same counts, the results for `O=C(c1nccs1)[C@]12Cc3cnn(-c4ccc(F)cc4)c3C=C1CCN(S(=O)(=O)c1ccc(N3CC[C@@H](F)C3)nc1)C2` [Example 9, ((R)-1-(4-fluorophenyl)-6-((6-((R)-3-fluoropyrrolidin-1-yl)pyridin-3-yl)sulfonyl)-4,4a,5,6,7,8-hexahydro-1H-pyrazolo[3,4-g]isoquinolin-4a-yl)(thiazol-2-yl)methanone] are less than 0.0005 µM and no less than 0.1 µM.
For `O=C(c1ccccn1)[C@]12Cc3cnn(-c4ccc(F)cc4)c3C=C1CCN(S(=O)(=O)c1ccc(N3CCCC3)cc1)C2` [Example 10, (R)-(1-(4-fluorophenyl)-6-((4-(pyrrolidin-1-yl)phenyl)sulfonyl)-4,4a,5,6,7,8-hexahydro-1H-pyrazolo[3,4-g]isoquinolin-4a-yl)(pyridin-2-yl)methanone], in that order: less than 0.0005 µM and no less than 0.1 µM.
For `O=C(c1ccccn1)[C@]12Cc3cnn(-c4ccc(F)cc4)c3C=C1CCN(S(=O)(=O)c1cncc(N3CCCC3)c1)C2` [Example 10B, (R)-(1-(4-fluorophenyl)-6-((5-(pyrrolidin-1-yl)pyridin-3-yl)sulfonyl)-4,4a,5,6,7,8-hexahydro-1H-pyrazolo[3,4-g]isoquinolin-4a-yl)(pyridin-2-yl)methanone], in that order: less than 0.0005 µM and less than 0.02 µM.
As for `O=C(c1cscn1)[C@]12Cc3cnn(-c4ccc(F)cc4)c3C=C1CCN(S(=O)(=O)c1ccc(C(F)(F)F)cc1)C2` [Example 11, (R)-(1-(4-fluorophenyl)-6-((4-(trifluoromethyl)phenyl)sulfonyl)-4,4a,5,6,7,8-hexahydro-1H-pyrazolo[3,4-g]isoquinolin-4a-yl)(thiazol-4-yl)methanone], the Ki at human recombinant GR is less than 0.0005 µM; in experiment [1] (setting [3]), 0.02 to 0.1 µM.
In the case of `O=C(c1ccccn1)[C@]12Cc3cnn(-c4ccc(F)cc4)c3C=C1CCN(S(=O)(=O)c1ccc(Cl)cc1)C2` [Example 11A, (R)-(6-((4-chlorophenyl)sulfonyl)-1-(4-fluorophenyl)-4,4a,5,6,7,8-hexahydro-1H-pyrazolo[3,4-g]isoquinolin-4a-yl)(pyridin-2-yl)methanone], the figures for the Ki (on human recombinant GR (setting [2]); in experiment [1] (setting [3])) were less than 0.0005 µM and less than 0.02 µM, respectively.
For `COCc1cccc(S(=O)(=O)N2CCC3=Cc4c(cnn4-c4ccc(F)cc4)C[C@]3(C(=O)c3ccccn3)C2)c1` [Example 11AA, (R)-(1-(4-fluorophenyl)-6-((3-(methoxymethyl)phenyl)sulfonyl)-4,4a,5,6,7,8-hexahydro-1H-pyrazolo[3,4-g]isoquinolin-4a-yl)(pyridin-2-yl)methanone], in that order: less than 0.0005 µM and 0.02 to 0.1 µM.
On the same counts, the results for `CN1CCOc2cc(S(=O)(=O)N3CCC4=Cc5c(cnn5-c5ccc(F)cc5)C[C@]4(C(=O)c4ccccn4)C3)cnc21` [Example 11AB, (R)-(1-(4-fluorophenyl)-6-((4-methyl-3,4-dihydro-2H-pyrido [3,2-b][1,4]oxazin-7-yl)sulfonyl)-4,4a,5,6,7,8-hexahydro-1H-pyrazolo[3,4-g]isoquinolin-4a-yl)(pyridin-2-yl)methanone] are less than 0.0005 µM and 0.02 to 0.1 µM.
For `O=C(c1ccccn1)[C@]12Cc3cnn(-c4ccc(F)cc4)c3C=C1CCN(S(=O)(=O)c1ccc(F)c(F)c1F)C2` [Example 11AC, (R)-(1-(4-fluorophenyl)-6-((2,3,4-trifluorophenyl)sulfonyl)-4,4a,5,6,7,8-hexahydro-1H-pyrazolo[3,4-g]isoquinolin-4a-yl)(pyridin-2-yl)methanone], in that order: less than 0.0005 µM and less than 0.02 µM.
As for `O=C(c1ccccn1)[C@]12Cc3cnn(-c4ccc(F)cc4)c3C=C1CCN(S(=O)(=O)c1cccc(C(F)(F)F)n1)C2` [Example 11AD, (R)-(1-(4-fluorophenyl)-6-((6-(trifluoromethyl)pyridin-2-yl)sulfonyl)-4,4a,5,6,7,8-hexahydro-1H-pyrazolo[3,4-g]isoquinolin-4a-yl)(pyridin-2-yl)methanone], the results for the Ki (on human recombinant GR (setting [2]); in experiment [1] (setting [3])) were less than 0.0005 µM and less than 0.02 µM, respectively.
For `Cc1ccnc(C(=O)[C@]23Cc4cnn(-c5ccc(F)cc5)c4C=C2CCN(S(=O)(=O)c2cccc(C(F)(F)F)n2)C3)c1` [Example 11AE, (R)-(1-(4-fluorophenyl)-6-((6-(trifluoromethyl)pyridin-2-yl)sulfonyl)-4,4a,5,6,7,8-hexahydro-1H-pyrazolo[3,4-g]isoquinolin-4a-yl)(4-methylpyridin-2-yl)methanone], in that order: less than 0.0005 µM and less than 0.02 µM.
